Reference: the NIST ThermoML archive (doi:10.1016/j.tca.2015.08.013)

Conditions: for surface tension liquid-gas: Drop volume; for mass density / kinematic viscosity / speed of sound / vapor or sublimation pressure: Liquid; for mass density: Vibrating tube method; for kinematic viscosity / speed of sound: 101.33 kPa; for kinematic viscosity: Capillary tube (Ostwald / Ubbelohde) method; for speed of sound: Sing-around technique in a fixed-path interferometer; for vapor or sublimation pressure: Ebulliometric method (Recirculating still)

Cc1ccc(C)o1 [2,5-dimethylfuran]
Conditions	kinematic viscosity [m2/s]	speed of sound [m/s]	surface tension liquid-gas [mN/m]	vapor or sublimation pressure [kPa]
278.15 K	6.7e-07	1281.9	27.5	–
280.65 K	6.5e-07	1271.1	27.19	–
283.15 K	6.34e-07	1260.2	26.86	–
283.16 K	–	–	–	3.015
285.65 K	6.12e-07	1249.2	26.57	–
288.15 K	5.95e-07	1238.3	26.22	–
288.36 K	–	–	–	4.037
290.65 K	5.79e-07	1227.5	25.91	4.575
293.15 K	5.63e-07	1216.5	25.54	–
293.16 K	–	–	–	5.195
295.65 K	5.48e-07	1206.3	25.3	–
298.15 K	5.34e-07	1194.9	25	–
298.25 K	–	–	–	6.75
300.65 K	5.2e-07	1185	24.67	–
302.52 K	–	–	–	8.37
303.15 K	5.04e-07	1173.3	24.33	–
305.65 K	4.95e-07	1163.8	24.02	–
308.15 K	4.83e-07	1151.9	23.7	–
309.17 K	–	–	–	11.59
310.65 K	4.71e-07	1142.5	23.34	–
313.15 K	4.57e-07	1130.7	23.01	–
314.61 K	–	–	–	14.8
315.65 K	4.5e-07	1121.2	22.7	–
318.15 K	4.4e-07	1109.5	22.29	–
319.27 K	–	–	–	18.09
320.65 K	4.3e-07	1100	21.97	–
323.15 K	4.23e-07	1088.5	21.69	–
324.99 K	–	–	–	22.86
325.65 K	4.12e-07	1078.7	21.29	–
328.09 K	–	–	–	26.07
328.15 K	4.03e-07	1067.6	20.95	–
330.65 K	3.95e-07	1057.5	20.58	–
332.43 K	–	–	–	30.95
333.15 K	3.89e-07	1046.9	20.34	–
335.48 K	–	–	–	34.85
335.65 K	3.8e-07	1036.2	20.01	–
338.15 K	3.72e-07	1029.2	19.65	–
338.4 K	–	–	–	38.81
340.95 K	–	–	–	42.52
343.11 K	–	–	–	46.09
345.85 K	–	–	–	50.77
348.13 K	–	–	–	55.05
350.87 K	–	–	–	60.51
352.82 K	–	–	–	64.61
354.3 K	–	–	–	68.12
356.1 K	–	–	–	72.15
357.87 K	–	–	–	76.61
359.42 K	–	–	–	80.63
361.09 K	–	–	–	85.02
362.46 K	–	–	–	88.86
363.39 K	–	–	–	91.39
364.36 K	–	–	–	94.28
365.26 K	–	–	–	97.05
366.7 K	–	–	–	101.33

Conditions	mass density [kg/m3]
278.15 K, 99 kPa	917.53
280.65 K, 99 kPa	914.899
283.15 K, 99 kPa	912.247
283.15 K, 100 kPa	912.25
283.15 K, 2500 kPa	914.37
283.15 K, 5000 kPa	916.47
283.15 K, 7500 kPa	918.52
283.15 K, 10000 kPa	920.53
283.15 K, 20000 kPa	928.2
283.15 K, 30000 kPa	935.24
283.15 K, 40000 kPa	941.89
283.15 K, 50000 kPa	948.12
283.15 K, 60000 kPa	953.98
285.65 K, 99 kPa	909.614
288.15 K, 99 kPa	906.988
288.15 K, 100 kPa	906.99
288.15 K, 2500 kPa	909.13
288.15 K, 5000 kPa	911.29
288.15 K, 7500 kPa	913.42
288.15 K, 10000 kPa	915.49
288.15 K, 20000 kPa	923.34
288.15 K, 30000 kPa	930.62
288.15 K, 40000 kPa	937.41
288.15 K, 50000 kPa	943.72
288.15 K, 60000 kPa	949.78
290.65 K, 99 kPa	904.299
293.15 K, 99 kPa	901.636
293.15 K, 100 kPa	901.64
293.15 K, 2500 kPa	903.82
293.15 K, 5000 kPa	906.07
293.15 K, 7500 kPa	908.26
293.15 K, 10000 kPa	910.4
293.15 K, 20000 kPa	918.5
293.15 K, 30000 kPa	925.97
293.15 K, 40000 kPa	932.94
293.15 K, 50000 kPa	939.57
293.15 K, 60000 kPa	945.6
295.65 K, 99 kPa	898.951
298.15 K, 99 kPa	896.285
298.15 K, 100 kPa	896.29
298.15 K, 2500 kPa	898.6
298.15 K, 5000 kPa	900.94
298.15 K, 7500 kPa	903.16
298.15 K, 10000 kPa	905.39
298.15 K, 20000 kPa	913.73
298.15 K, 30000 kPa	921.4
298.15 K, 40000 kPa	928.44
298.15 K, 50000 kPa	935.19
298.15 K, 60000 kPa	941.44
300.65 K, 99 kPa	893.569
303.15 K, 99 kPa	890.898
303.15 K, 100 kPa	890.9
303.15 K, 2500 kPa	893.25
303.15 K, 5000 kPa	895.65
303.15 K, 7500 kPa	897.97
303.15 K, 10000 kPa	900.25
303.15 K, 20000 kPa	908.83
303.15 K, 30000 kPa	916.74
303.15 K, 40000 kPa	924.06
303.15 K, 50000 kPa	930.89
303.15 K, 60000 kPa	937.27
305.65 K, 99 kPa	888.151
308.15 K, 99 kPa	885.447
308.15 K, 100 kPa	885.45
308.15 K, 2500 kPa	887.9
308.15 K, 5000 kPa	890.36
308.15 K, 7500 kPa	892.78
308.15 K, 10000 kPa	895.14
308.15 K, 20000 kPa	903.98
308.15 K, 30000 kPa	912.1
308.15 K, 40000 kPa	919.56
308.15 K, 50000 kPa	926.54
308.15 K, 60000 kPa	933.08
310.65 K, 99 kPa	882.693
313.15 K, 99 kPa	879.927
313.15 K, 100 kPa	879.93
313.15 K, 2500 kPa	882.45
313.15 K, 5000 kPa	885.02
313.15 K, 7500 kPa	887.51
313.15 K, 10000 kPa	889.95
313.15 K, 20000 kPa	899.05
313.15 K, 30000 kPa	907.41
313.15 K, 40000 kPa	915.12
313.15 K, 50000 kPa	922.3
313.15 K, 60000 kPa	928.9
315.65 K, 99 kPa	877.195
318.15 K, 99 kPa	874.437
318.15 K, 100 kPa	874.44
318.15 K, 2500 kPa	877.03
318.15 K, 5000 kPa	879.68
318.15 K, 7500 kPa	882.27
318.15 K, 10000 kPa	884.79
318.15 K, 20000 kPa	894.18
318.15 K, 30000 kPa	902.74
318.15 K, 40000 kPa	910.6
318.15 K, 50000 kPa	917.91
318.15 K, 60000 kPa	924.74
320.65 K, 99 kPa	871.651
323.15 K, 99 kPa	868.85
323.15 K, 100 kPa	868.85
323.15 K, 2500 kPa	871.55
323.15 K, 5000 kPa	874.3
323.15 K, 7500 kPa	876.94
323.15 K, 10000 kPa	879.54
323.15 K, 20000 kPa	889.25
323.15 K, 30000 kPa	898.07
323.15 K, 40000 kPa	906.13
323.15 K, 50000 kPa	913.67
323.15 K, 60000 kPa	920.58
325.65 K, 99 kPa	866.06
328.15 K, 99 kPa	863.248
328.15 K, 100 kPa	863.25
328.15 K, 2500 kPa	866.05
328.15 K, 5000 kPa	868.91
328.15 K, 7500 kPa	871.68
328.15 K, 10000 kPa	874.38
328.15 K, 20000 kPa	884.36
328.15 K, 30000 kPa	893.38
328.15 K, 40000 kPa	901.61
328.15 K, 50000 kPa	909.29
328.15 K, 60000 kPa	916.43
330.65 K, 99 kPa	860.418
333.15 K, 99 kPa	857.577
333.15 K, 100 kPa	857.58
333.15 K, 2500 kPa	860.47
333.15 K, 5000 kPa	863.42
333.15 K, 7500 kPa	866.28
333.15 K, 10000 kPa	869.07
333.15 K, 20000 kPa	879.4
333.15 K, 30000 kPa	888.7
333.15 K, 40000 kPa	897.22
333.15 K, 50000 kPa	905.17
333.15 K, 60000 kPa	912.4
335.65 K, 99 kPa	854.721
338.15 K, 99 kPa	851.85
338.15 K, 100 kPa	851.85
338.15 K, 2500 kPa	854.88
338.15 K, 5000 kPa	857.96
338.15 K, 7500 kPa	860.93
338.15 K, 10000 kPa	863.81
338.15 K, 20000 kPa	874.45
338.15 K, 30000 kPa	884.02
338.15 K, 40000 kPa	892.61
338.15 K, 50000 kPa	900.74
338.15 K, 60000 kPa	908.17
